This note sets out measurements from ChEMBL document CHEMBL1201862, “PubChem BioAssay data set” (2004).

The source made the active and inactive calls.

The target of experiment [1] is Cytochrome P450 2C19 (Homo sapiens, UniProt P33261). Kind of experiment: Cytochrome panel assay with activity outcomes. Panel member name: p450-cyp2c19 Compounds with AC50 equal or less than 10 uM are considered active. Type of experiment: functional. Particulars: read-out: AC50.
Experiment [2] has as its system HEK293. The experiment can be described thus: inhibitors of LMP1-driven NF-kB reporter, dose response, cell-based, HEK293, luciferase, cherry-pick (AID 588343). Type of experiment: functional. Particulars: Homo sapiens.
In experiment [3] the target is Cytochrome P450 3A4 (Homo sapiens, UniProt P08684).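 Further: CYP3A4 tested as one member of a cytochrome P450 panel screen.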
Experiment [4] deals with Cytochrome P450 2C9 (Homo sapiens, UniProt P11712).
The subject of experiment [5] is HEK293. The experiment can be described thus: NOD1 signaling inhibitors, primary screen, cell-based, luminescence, uHTS (AID 1578). Type of experiment: functional. The conditions noted are these: Homo sapiens.
The test system of experiment [6] is Streptococcus sp. 'group A'. Kind of experiment: growth inhibition of control SK(-) GAS strain, dose response, counter-screen for streptokinase expression inhibitor project, luminescence, kanamycin, BacTiterGlo, confirmation (AID 1900). Type of experiment: functional, organism-based.
Experiment [7] deals with HEK293. The experiment can be described thus: cells. The conditions noted are these: Homo sapiens. The class given is functional, cell-based.
Experiment [8] deals with T1, Streptokinase A (Streptococcus pyogenes serotype M1, UniProt P10520).
T1 sequence (P10520 whole entry): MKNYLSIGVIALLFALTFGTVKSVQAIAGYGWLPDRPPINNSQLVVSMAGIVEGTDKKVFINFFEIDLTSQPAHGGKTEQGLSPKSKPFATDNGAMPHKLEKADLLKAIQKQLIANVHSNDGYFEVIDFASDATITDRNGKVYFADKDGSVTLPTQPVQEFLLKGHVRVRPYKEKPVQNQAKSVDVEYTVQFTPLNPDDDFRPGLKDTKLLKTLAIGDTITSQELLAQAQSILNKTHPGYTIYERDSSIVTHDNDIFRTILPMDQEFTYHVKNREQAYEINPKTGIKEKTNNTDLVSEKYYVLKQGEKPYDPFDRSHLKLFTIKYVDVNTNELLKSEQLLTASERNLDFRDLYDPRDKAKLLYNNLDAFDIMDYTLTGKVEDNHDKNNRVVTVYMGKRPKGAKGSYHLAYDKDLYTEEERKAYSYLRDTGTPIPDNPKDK
Kind of experiment: S. pyogenes streptokinase expression inhibitors, potency, dose response, plasminogen activation absorbance, OD405 (AID 1914).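 Further: secreted streptokinase activity via plasminogen activation per viability signal from cell pellet.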 The class given is functional, Streptococcus pyogenes M1 GAS.

Experiment [9] concerns HEK293. Kind of experiment: cells. Particulars: Homo sapiens. The class given is functional, cell-based. This is another data set of the same source.
Experiment [10] concerns HEK293. Kind of experiment: NOD2 signaling inhibitors in MDP-stimulated cells, cell-based, uHTS, luminescence (AID 2001). Type of experiment: functional. The conditions noted are these: Homo sapiens.
In experiment [11] the test system is Streptococcus. Kind of experiment: Group A Streptococcus viability loss, dose response, counter-screen for streptokinase expression inhibitor project, luminescence, BacTiterGlo (AID 1915).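 Further: potency for reduction of bacterial viability or growth.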 The class given is functional, organism-based.
Experiment [12] deals with INS1. Kind of experiment: beta cell apoptosis inhibitors, cytokine rescue, dose response, luminescence, retest (AID 449756).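 Further: cell death triggered by IL-1 beta plus TNF-alpha plus IFN-gamma mixture; protective hits raise ATP signal compared with cytokine alone wells.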 The class given is functional, cell-based. The conditions noted are these: Rattus norvegicus.
Experiment [13] has as its target T2, High affinity choline transporter 1 (Homo sapiens, UniProt Q9GZV3).
T2 sequence (Q9GZV3 whole entry): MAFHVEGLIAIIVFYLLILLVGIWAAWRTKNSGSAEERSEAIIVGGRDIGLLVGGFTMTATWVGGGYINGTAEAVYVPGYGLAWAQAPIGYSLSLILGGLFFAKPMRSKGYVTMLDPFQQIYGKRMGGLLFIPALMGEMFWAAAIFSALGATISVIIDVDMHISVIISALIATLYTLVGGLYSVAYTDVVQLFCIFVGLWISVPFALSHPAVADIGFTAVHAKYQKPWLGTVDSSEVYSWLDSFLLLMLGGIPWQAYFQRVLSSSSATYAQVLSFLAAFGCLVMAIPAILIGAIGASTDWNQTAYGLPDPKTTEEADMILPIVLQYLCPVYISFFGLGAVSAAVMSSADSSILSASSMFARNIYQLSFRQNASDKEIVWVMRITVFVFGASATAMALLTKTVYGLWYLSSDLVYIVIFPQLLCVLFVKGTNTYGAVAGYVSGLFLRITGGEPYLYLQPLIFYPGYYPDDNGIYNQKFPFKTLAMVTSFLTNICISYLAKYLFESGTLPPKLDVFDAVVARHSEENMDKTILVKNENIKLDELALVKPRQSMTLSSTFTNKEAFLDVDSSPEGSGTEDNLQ
Kind of experiment: CHT inhibitors, dose response, cell-based, 5-point CRC, membrane potential dye (AID 504840). Type of experiment: functional.

The target of experiment [14] is T3, Caspase-3 (Homo sapiens, UniProt P42574).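 Further: Dose-response selectivity test against caspase-3 for candidate inhibitors of sentrin-specific proteases (SENPs).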
T3 sequence (P42574 whole entry): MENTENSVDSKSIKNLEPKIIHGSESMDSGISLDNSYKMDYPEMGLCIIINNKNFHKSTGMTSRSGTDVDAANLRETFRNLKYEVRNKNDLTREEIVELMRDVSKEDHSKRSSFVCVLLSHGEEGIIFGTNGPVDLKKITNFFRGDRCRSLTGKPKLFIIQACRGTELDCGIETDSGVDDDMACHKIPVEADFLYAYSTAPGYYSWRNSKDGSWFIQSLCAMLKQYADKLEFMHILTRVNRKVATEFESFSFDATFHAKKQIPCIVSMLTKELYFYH
Type of experiment: functional.

Experiment [15] has as its target T4, Sentrin-specific protease 7 (Homo sapiens, UniProt Q9BQF6).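 Further: Luminescence-based dose-response confirmation of ultra-high-throughput screening hits, measuring inhibition of SENP7.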
T4 sequence (Q9BQF6 whole entry): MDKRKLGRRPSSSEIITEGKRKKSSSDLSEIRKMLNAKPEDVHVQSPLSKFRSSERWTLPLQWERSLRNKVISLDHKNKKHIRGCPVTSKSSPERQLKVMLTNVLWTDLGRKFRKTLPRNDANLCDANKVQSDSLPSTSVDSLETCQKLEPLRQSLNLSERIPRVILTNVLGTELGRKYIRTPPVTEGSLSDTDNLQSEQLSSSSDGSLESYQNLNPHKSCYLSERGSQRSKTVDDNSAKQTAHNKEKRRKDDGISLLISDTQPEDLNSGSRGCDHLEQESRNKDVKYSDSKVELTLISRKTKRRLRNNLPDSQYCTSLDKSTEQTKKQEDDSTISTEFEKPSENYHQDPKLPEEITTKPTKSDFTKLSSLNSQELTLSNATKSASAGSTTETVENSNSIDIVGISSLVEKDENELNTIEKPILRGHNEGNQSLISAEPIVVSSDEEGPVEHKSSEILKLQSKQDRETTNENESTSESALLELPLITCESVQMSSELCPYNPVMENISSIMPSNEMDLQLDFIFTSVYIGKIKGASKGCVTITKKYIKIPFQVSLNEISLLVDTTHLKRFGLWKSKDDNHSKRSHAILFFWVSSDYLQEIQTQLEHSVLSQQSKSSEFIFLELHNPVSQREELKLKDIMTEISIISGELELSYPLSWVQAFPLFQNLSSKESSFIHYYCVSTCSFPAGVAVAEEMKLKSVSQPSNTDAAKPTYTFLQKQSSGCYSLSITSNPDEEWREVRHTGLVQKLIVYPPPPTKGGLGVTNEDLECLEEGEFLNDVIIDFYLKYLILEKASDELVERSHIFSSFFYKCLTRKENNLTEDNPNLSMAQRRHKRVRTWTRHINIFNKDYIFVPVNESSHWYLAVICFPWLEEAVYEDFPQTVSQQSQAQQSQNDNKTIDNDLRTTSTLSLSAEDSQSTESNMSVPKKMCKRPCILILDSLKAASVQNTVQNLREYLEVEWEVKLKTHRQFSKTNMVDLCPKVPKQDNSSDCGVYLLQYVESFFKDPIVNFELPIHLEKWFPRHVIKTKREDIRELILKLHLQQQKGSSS
The class given is functional.

The target of experiment [16] is T5, Sentrin-specific protease 6 (Homo sapiens, UniProt Q9GZR1).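 Further: Luminescence-based dose-response confirmatory assay of SENP6 inhibition, following up an ultra-high-throughput screen.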
T5 sequence (Q9GZR1 whole entry): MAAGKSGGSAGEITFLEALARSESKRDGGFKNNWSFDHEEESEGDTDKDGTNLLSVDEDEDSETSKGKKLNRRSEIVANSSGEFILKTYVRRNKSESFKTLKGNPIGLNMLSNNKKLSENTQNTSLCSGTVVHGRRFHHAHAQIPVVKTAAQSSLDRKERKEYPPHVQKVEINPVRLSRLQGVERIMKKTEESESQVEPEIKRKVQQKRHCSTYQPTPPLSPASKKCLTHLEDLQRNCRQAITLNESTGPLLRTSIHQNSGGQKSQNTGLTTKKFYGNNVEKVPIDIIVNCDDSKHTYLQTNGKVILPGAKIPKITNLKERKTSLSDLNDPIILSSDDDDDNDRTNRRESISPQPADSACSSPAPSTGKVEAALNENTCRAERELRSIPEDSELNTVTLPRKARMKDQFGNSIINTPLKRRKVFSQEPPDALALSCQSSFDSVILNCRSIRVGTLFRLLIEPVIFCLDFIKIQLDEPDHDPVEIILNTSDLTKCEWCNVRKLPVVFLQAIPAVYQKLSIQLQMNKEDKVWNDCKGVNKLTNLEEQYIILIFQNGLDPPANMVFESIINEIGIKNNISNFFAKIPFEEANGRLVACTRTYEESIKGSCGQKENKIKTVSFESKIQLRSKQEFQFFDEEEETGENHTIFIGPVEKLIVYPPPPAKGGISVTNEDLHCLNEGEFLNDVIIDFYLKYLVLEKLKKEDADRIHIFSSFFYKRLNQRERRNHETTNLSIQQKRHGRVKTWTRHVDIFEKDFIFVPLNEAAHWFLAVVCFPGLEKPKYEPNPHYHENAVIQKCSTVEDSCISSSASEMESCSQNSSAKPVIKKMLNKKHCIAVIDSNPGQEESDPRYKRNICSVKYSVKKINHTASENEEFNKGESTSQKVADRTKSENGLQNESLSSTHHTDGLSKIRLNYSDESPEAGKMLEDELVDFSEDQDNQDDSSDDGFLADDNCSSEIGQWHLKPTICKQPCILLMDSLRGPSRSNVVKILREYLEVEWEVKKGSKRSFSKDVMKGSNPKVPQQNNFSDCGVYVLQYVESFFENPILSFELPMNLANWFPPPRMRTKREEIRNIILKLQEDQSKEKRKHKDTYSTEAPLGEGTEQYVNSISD
Type of experiment: functional.

In experiment [17] the target is T6, Sentrin-specific protease 8 (Homo sapiens, UniProt Q96LD8).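 Further: luminescence read-out of SENP8 inhibition, dose-response confirmation following an ultra-high-throughput screen.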
T6 sequence (Q96LD8 whole entry): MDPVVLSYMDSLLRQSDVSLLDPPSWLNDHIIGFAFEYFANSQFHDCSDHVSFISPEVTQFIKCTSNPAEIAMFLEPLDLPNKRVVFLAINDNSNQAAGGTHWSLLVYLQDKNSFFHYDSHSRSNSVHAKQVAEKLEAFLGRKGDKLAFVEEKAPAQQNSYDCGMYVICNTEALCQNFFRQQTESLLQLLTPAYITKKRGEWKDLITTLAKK
The class given is functional.

Experiment [18] is described as follows: microbe, parasite or virus in culture. Type of experiment: functional. The conditions noted are these: Mycobacterium tuberculosis.
The target of experiment [19] is Nonstructural protein 1 (Influenza A virus, UniProt Q194T2). The class given is functional, Influenza A virus (A/California/07/2009(H1N1)).
The nature of experiment [20]: Luminescence Cell-Based Dose Retest to Confirm Inhibitors of Cancer Stem Cells. [Related pubchem assays (depositor defined):AID2717, AID2721]. Particulars: Homo sapiens. Type of experiment: functional.
For experiment [21], the system named is Vero. Kind of experiment: cells. The class given is functional. The conditions noted are these: Chlorocebus sabaeus.

Sequence of Cytochrome P450 2C19 (P33261 whole entry): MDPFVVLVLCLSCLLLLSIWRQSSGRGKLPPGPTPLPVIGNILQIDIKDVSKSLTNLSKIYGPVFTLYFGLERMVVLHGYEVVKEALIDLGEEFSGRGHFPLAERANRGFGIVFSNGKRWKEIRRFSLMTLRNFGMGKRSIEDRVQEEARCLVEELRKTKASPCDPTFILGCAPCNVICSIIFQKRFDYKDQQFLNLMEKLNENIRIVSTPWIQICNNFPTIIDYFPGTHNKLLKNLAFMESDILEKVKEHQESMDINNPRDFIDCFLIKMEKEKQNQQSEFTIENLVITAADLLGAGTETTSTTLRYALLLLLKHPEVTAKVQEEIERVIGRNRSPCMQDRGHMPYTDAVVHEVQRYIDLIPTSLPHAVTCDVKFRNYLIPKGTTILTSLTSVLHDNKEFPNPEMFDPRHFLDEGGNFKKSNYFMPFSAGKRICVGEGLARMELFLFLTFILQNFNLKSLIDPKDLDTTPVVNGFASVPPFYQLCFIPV
Sequence of Cytochrome P450 3A4 (P08684 whole entry): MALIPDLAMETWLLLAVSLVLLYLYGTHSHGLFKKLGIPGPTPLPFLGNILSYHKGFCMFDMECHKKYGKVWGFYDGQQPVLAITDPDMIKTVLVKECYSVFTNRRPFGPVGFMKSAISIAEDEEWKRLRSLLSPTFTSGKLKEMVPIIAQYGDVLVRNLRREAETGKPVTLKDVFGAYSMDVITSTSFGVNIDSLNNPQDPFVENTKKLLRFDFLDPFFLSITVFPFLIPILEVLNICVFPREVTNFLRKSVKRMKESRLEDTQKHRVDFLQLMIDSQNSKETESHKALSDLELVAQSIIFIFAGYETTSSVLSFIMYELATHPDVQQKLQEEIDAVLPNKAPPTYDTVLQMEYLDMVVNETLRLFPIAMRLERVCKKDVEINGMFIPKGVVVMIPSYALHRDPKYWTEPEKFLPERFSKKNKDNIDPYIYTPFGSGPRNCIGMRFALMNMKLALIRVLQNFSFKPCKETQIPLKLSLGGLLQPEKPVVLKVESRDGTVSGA
Sequence of Nonstructural protein 1 (Q194T2 whole entry): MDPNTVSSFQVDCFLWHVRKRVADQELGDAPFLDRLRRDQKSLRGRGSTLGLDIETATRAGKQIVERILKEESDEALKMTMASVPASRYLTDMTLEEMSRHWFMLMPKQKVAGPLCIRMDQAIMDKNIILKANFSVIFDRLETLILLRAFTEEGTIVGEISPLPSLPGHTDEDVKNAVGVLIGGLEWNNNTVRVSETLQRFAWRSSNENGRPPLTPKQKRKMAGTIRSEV
Sequence of Cytochrome P450 2C9 (P11712 whole entry): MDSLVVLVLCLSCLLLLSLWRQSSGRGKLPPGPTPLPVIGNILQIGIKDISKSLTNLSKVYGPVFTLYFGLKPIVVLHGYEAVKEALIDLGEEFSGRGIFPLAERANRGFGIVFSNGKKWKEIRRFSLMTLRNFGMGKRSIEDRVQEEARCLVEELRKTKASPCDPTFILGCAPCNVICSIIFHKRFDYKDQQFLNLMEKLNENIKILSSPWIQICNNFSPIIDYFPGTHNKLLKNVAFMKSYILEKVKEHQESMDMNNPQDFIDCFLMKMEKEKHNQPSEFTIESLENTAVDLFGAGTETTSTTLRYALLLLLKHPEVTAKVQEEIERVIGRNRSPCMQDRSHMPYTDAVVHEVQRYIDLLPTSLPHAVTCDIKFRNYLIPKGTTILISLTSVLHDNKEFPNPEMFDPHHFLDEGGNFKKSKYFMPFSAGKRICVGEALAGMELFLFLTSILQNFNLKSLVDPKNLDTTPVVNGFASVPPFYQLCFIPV

With `CCc1ccc(C(=O)COC(=O)c2cccc(N3C(=O)c4c(C)nc5ccccc5c4C3=O)c2)cc1`, the concentration at half-maximal activity (AC50) is 7.08 µM (inconclusive) in [1], 16.7 µM (active) in experiment [2], 22.4 µM (inconclusive) in experiment [3] and 3.16 µM (inconclusive) in experiment [4].
As for `O=C(Nc1ccc([N+](=O)[O-])cc1)Nc1ccc(Cl)cc1F`, the EC50 in [5] is 18.7 µM (active); in experiment [6], > 150 µM (not active); in [8], > 150 µM (not active); in [11] it was > 150 µM (not active). Further, the half-maximal inhibitory concentration (IC50) in experiment [7] was 3.12 µM (active); in experiment [9], > 20 µM (inactive); in experiment [10] it was 3.26 µM (inactive). For the same compound, in experiment [12], the AC50 was 3.73 µM (active).
With `Cc1ccc(C(=O)CSc2nnc(-c3ccco3)n2C)cc1`, in experiment [13], the IC50 is 9.62 µM (active).
As for `COc1ccc(NC(=O)c2ccc(OCC3CCCO3)cc2)cc1Cl` (centres undefined), the IC50 in experiment [14] is 15.6 µM (active); in experiment [15] it was 5.56 µM (active); in [16], > 100 µM (inactive); in experiment [17], > 100 µM (inactive).
Consider `O=C(Nc1nc2ccc(F)cc2s1)C1=COCCO1`, for which, in experiment [2], the half-maximal activity concentration (AC50) was 2.38 µM (active).
For `N#CC(C#N)=c1ccc2c(c1)N1C3=C(CCCC3)CC3CCCCC31N=2` (centres undefined), the CC50 in experiment [18] is 29.5 µM (active). The figures for the half-maximal inhibitory concentration (IC50) in experiment [19] and in experiment [13] were 11.2 µM (active) and 11 µM (active), respectively.
For the compound `CC(=O)Nc1ccc(C=NNc2nnc(NN=Cc3ccc(NC(C)=O)cc3)c3ccccc23)cc1`, the AC50 in [2] was 0.932 µM (active).
As for `CCOc1ccc(/N=C/c2c(O)oc3ccccc3c2=O)cc1`, the IC50 in [14] is 32.8 µM (active); in experiment [15], 6.32 µM (active); in [16], 26.2 µM (active); in experiment [17] it was > 100 µM (inactive).
Take `NC(=O)c1ccccc1N/C=C/C(=O)c1cccs1`: the AC50 in [2] was 22.5 µM (active).
Turning to `COc1ccc(N2Cc3ccccc3C2=O)cc1`, the concentration at half-maximal activity (AC50) in experiment [2] is 12.5 µM (active).
On to `O=C(Nc1ccc(S(=O)(=O)N2CCOCC2)cc1)c1cc(-c2cc(Cl)ccc2O)n[nH]1`, for which the EC50 in experiment [5] is > 20 µM (inactive). Besides, the IC50 was 6.05 µM (active) in experiment [7], 7.45 µM (active) in experiment [9] and 6.8 µM (active) in [10]. Besides, the AC50 in experiment [20] is 0.962 µM (active). Besides, the CC50 in [21] was 10.9 µM (active).
